# Data as given in patent US8058258B2, “Methods for cancer therapy and stem cell modulation” (Agency for Science, Technology and Research, priority 2006, dated 2011).
# Tests used:
# [1] = test system: mRNA of EZH2, SUZ12 and EED; assay: RT-PCR of mRNA levels of PRC2 proteins; format: cell-based; details: HCT116 cells, after 3-deazaneplanocin treatment
# Method: FIG. 1B depicts the analysis of the mRNA levels of the PRC2 proteins EZH2, SUZ12, and EED by reverse transcription (RT-PCR) before (-) and after (+)3-deazaneplanocin treatment. HCT116 cells were treated as in (a) and total RNA was isolated for RT-PCR analysis GAPDH served as a control. […] Accordingly, trimethylation of histone 3 at […] In contrast, histone H3 methylation at […] (H3-K9) was not affected by 3-deazaneplanocin treatment.
# SK-BR-3 cells = assay: Apoptotic response time course by FACS analysis; format: cell-based, human; details: SK-BR-3, 5 μM, time course to 120 hours
# Method: (§1) FIG. 6A depicts an analysis of the breast cancer cell lines MCF-7, MB-468, SK-BR-3, MB-231, T47D and BT549 for an apoptotic effect of 5 μM 3-deazaneplanocin over a time frame of 120 hours. Cell death was measured by FACS analysis. Data presented are the average of three independent experiments.
# (§2) Cells were trypsinised and washed with PBS and fixed in 70% ethanol and processed for propidium iodide staining and FACS analysis. For the caspase 3 activity assay and mitochondrial membrane potential detection, cells were stained with anti-active caspase 3 and JC-1, respectively, according to the manufacturer's instructions (BD Bioscience).
# (§3) To extend the observation seen in MCF-7 cells, additional breast cancer cell lines were screened, including MB-468, SK-BR-3, MB-231, T47D and BT549. […] To identify the PRC2 target genes associated with the cellular sensitivity to 3-deazaneplanocin, the array analysis was performed in these breast cancer cell lines before and after 3-deazaneplanocin treatment and the expression of the 47 identified PRC2 targets profiled. It was reasoned that some the PRC2 target genes might be differentially expressed between the sensitive and resistant cell lines, which might confer the distinct sensitivity to 3-deazaneplanocin. […] Both the real time and conventional RT-PCR analysis of the 4 gene set confirmed the array data (FIGS. 6D & 6E). […]
# T47D cells = assay: Apoptotic response time course by FACS analysis; format: cell-based, human; details: 5 μM, time course to 120 hours
# Method: as §1, §2, §3
# [2] = test system: RNA polymerase II binding to PRC2 target gene promoters; assay: ChIP of RNA Pol II binding to PRC2 target gene promoters; format: cell-based, human; details: MCF-7 cells, 5 μM, 48 hours
# Method: ChIP assays were performed as described previously. […] MCF-7 cell were seeded into 6-well plates at 30% confluence and treated with or without 3-deazaneplanocin (5 μM) for 48 hours. Cells were washed once in 1× phosphate-buffered saline (PBS) and then treated with 1% formaldehyde in PBS at 37° C. for […] followed by the addition of glycine to a final concentration of 0.125 M for 5 mM. Cells were then scraped on ice and centrifuged at 1500 rpm for 5 mM at 4° C. After washing with PBS cell pellets were resuspended in 1 mL of cold lysis buffer (10 mM HEPES at pH 7.5, 1 mM EDTA at pH 8.0, 400 mM NaCl, 10% glycerol, 0.5% NP-40, 0.5 mM phenylmethylsulfonyl fluoride, and protease inhibitors [1 mM benzamidine, 3 mg/mL leupeptin, 0.1 mg/mL bacitracin, 1 mg/mL macroglobulin]) followed by centrifugation at 11,500 rpm in a microfuge for 5 min at 4° C. to remove protein not cross-linked to chromatin. The resulting pellets were then resuspended again in 1 mL of cold lysis buffer and sonicated with a Heat Systems-Ultrasonics, Inc. W-220 sonicator at 20% output for a total of 2 mM (pulsed: 30 sec on/30 sec off). The resulting solution was cleared by centrifugation at maximum speed in a microfuge for 10 mM at 4° C. At this point 5% of the solution was taken and stored at −20° C. for the input chromatin sample. […]
smiles,measurement,setting,value
"Nc1nccc2c1ncn2C1C=C(CO)C(O)C1O (stereo not shown) [3-deazaneplanocin, 5-(4-amino-1H-imidazo[4,5-c]pyridin-1-yl)-3-(hydroxymethyl)-3-cyclopentene-1,2-diol]",mRNA levels of each of the PRC2 proteins (RT-PCR),[1],remained unchanged
same,sensitivity to 3-deazaneplanocin-induced cell death,SK-BR-3 cells,highly susceptible
same,sensitivity to 3-deazaneplanocin-induced cell death,T47D cells,highly susceptible
same,binding of RNA Pol II to PRC2 target gene promoters (ChIP),[2],increased
